Measured values as given in patent US8088746B2, “Bis-modified bicyclic nucleic acid analogs” (Isis Pharmaceuticals, Inc., priority 2006, dated 2012).
Strand notation (5' to 3'): a small letter for the sugar, then the base; units joined by * are phosphorothioate-linked, units joined directly phosphodiester-linked; [ ] holds rarer units or linkages, { } end groups; capitals alone tell only the bases. [cMOE-R-N] = 6-(R)-CH2-O-CH3 BNA nucleoside (4'-CH(CH2OCH3)-O-2' bridge, R configuration) (N: the base); [6'R-Me-BNA] = 6-(R)-CH3 bicyclic nucleoside (R-constrained ethyl); [5'S-Me-BNA] = 5'-(S)-CH3 4'-CH2-O-2' bicyclic nucleoside; [6'S-cMOE] = 6-(S)-CH2-O-CH3 bicyclic nucleoside; e = 2'-O-(2-methoxyethyl) (MOE); l = locked nucleic acid (LNA); k = constrained ethyl (cEt); v = modified nucleoside v; [5mC] = 5-methylcytosine; d = 2'-deoxy (DNA)

How the values were obtained:
[1] = system: PTEN; assay: 2-14-2 gapped oligomers targeted to PTEN (Example 42), in vivo single injection, liver mRNA; details: for % UTC: liver mRNA, 72 hrs
[2] = system: PTEN; assay: 2-14-2 gapped oligomers targeted to PTEN (Example 50), in vivo single injection, liver mRNA; details: 72 hrs
[3] = system: RNA complement; assay: Tm by melting against RNA complement (Example 51); details: 18 mers, melting against the RNA 20 mer (131566), 14 base complementary region
[4] = system: PTEN; assay: 5′-vinyl and LNA gapped oligomers targeted to PTEN (Example 51), in vivo single injection, liver mRNA; details: 64 hrs; for PTEN % UTC: 18 mers, liver mRNA; for ED50: PTEN liver mRNA
[5] = injected once 60 mg/kg (last dose column)
[6] = injected once, second dose column, printed 60 mg/kg

Substance	% UTC ([1]; injected once 2 μmol/kg)	% UTC ([1]; injected once 10 μmol/kg)	% UTC ([2]; injected once 2 μmol/kg)	% UTC ([2]; injected once 10 μmol/kg)	further results
ISIS NO. 394420: MeCeTeGCTAGCCTCTGGATTeTe; 2′-O-MOE 2-14-2 gapped oligomer targeted to PTEN (CTGCTAGCCTCTGGATTT; sugars from the 5' end e2 d14 e2, [5mC] at 1, backbone not given here) [reference compound]	79%	26%	79%	26%	–
ISIS NO. 394425: MeClTlGCTAGCCTCTGGATTlTl; 4′-CH2-O-2′ BNA 2-14-2 gapped oligomer targeted to PTEN (CTGCTAGCCTCTGGATTT; sugars from the 5' end l2 d14 l2, [5mC] at 1, backbone not given here) [reference compound]	11%	2.1%	–	–	Tm [3]: 61.6 °C; PTEN % UTC ([4]; injected once 1.9 mg/kg): 100%; PTEN % UTC ([4]; injected once 19 mg/kg): 8%; PTEN % UTC [4, 5]: 4%; PTEN % UTC [4, 6]: 35%; ED50 ([4]; injected once): 4.4 mg/kg
ISIS NO. 400521: CSUSGCTAGCCTCTGGATUSUS; 5′-(S)-CH3 BNA 2-14-2 gapped oligomer targeted to PTEN (CUGCTAGCCTCTGGATUU; sugars from the 5' end [5'S-Me-BNA]2 d14 [5'S-Me-BNA]2, backbone and methylation of C not given here)	21.4%	3.8%	–	–	efficacy, comparison in words ([1]; high dose group (10 micromole/Kg)): essentially equally efficacious as 394425
ISIS NO. 400522: CRURGCTAGCCTCTGGATURUR; 6-(R)-CH3 BNA 2-14-2 gapped oligomer targeted to PTEN (CUGCTAGCCTCTGGATUU; sugars from the 5' end [6'R-Me-BNA]2 d14 [6'R-Me-BNA]2, backbone and methylation of C not given here)	–	–	18%	4%	–
ISIS NO. 400523: CSUSGCTAGCCTCTGGATUSUS; 6-(S)-CH3 BNA 2-14-2 gapped oligomer targeted to PTEN (CUGCTAGCCTCTGGATUU; sugars from the 5' end k2 d14 k2, backbone and methylation of C not given here)	–	–	17%	4%	–
ISIS NO. 400524: CRURGCTAGCCTCTGGATURUR; 6-(R)-CH2-O-CH3 BNA 2-14-2 gapped oligomer targeted to PTEN ([cMOE-R-C]*[cMOE-R-U]*dG*dC*dT*dA*dG*dC*dC*dT*dC*dT*dG*dG*dA*dT*[cMOE-R-U]*[cMOE-R-U]; antisense)	–	–	23%	4%	–
ISIS NO. 400525: CSUSGCTAGCCTCTGGATUSUS; 6-(S)-CH2-O-CH3 BNA 2-14-2 gapped oligomer targeted to PTEN (CUGCTAGCCTCTGGATUU; sugars from the 5' end [6'S-cMOE]2 d14 [6'S-cMOE]2, backbone and methylation of C not given here)	–	–	21%	3%	–
ISIS NO. 411027: CvUvGCTAGCCTCTGGATUvUv; 18 mer gapped oligomer targeted to PTEN, subscript v nucleoside illustrated in a drawing (CUGCTAGCCTCTGGATUU; sugars from the 5' end v2 d14 v2, backbone and methylation of C not given here; further chemistry not fully specified)	–	–	–	–	Tm [3]: 59.9 °C; PTEN % UTC ([4]; injected once 1.9 mg/kg): 89%; PTEN % UTC ([4]; injected once 19 mg/kg): 24%; PTEN % UTC [4, 5]: 7%; PTEN % UTC [4, 6]: 61%; ED50 ([4]; injected once): 7.4 mg/kg
